Like-named read-outs stand apart in the source and are kept apart here.
What was measured:
[1] = target: T1, kappa opioid receptor (PathHunter U2OS hOPRK1 membranes) (Homo sapiens, UniProt P41145); assay: Tritiated U69,593 binding for KOP-R membranes
T1 construct: host or cells: U2OS (PathHunter U2OS hOPRK1 β-arrestin cell line)
Method: Tritiated U69,593 binding for KOP-R membranes; tritiated DAMGO binding for MOP-R membranes; and tritiated DPDPE binding for DOP-R membranes:
(§1) Membranes from cells stably expressing kappa, mu or delta opioid receptor constructs (PathHunter U2OS hOPRK1, CHO-K1 rOPRM1 and CHO-K1 OPRD1 β-arrestin cell line, DiscoverX, Fremont, Calif., USA) were used. Cells were scraped from tissue culture plates, homogenized with a tissue tearor homogenizer in membrane buffer (10 mM Tris, 100 mM NaCl, and 1 mM EDTA; pH 7.4), and centrifuged at 20,000 g for 30 minutes at 4° C. and frozen at −80° C. until use. Prior to use, the pellets were resuspended in binding buffer (50 mm Tris, 100 mm NaCl, pH 7.4), homogenized with a dounce homogenizer and […] incubated with 1.0 nM of the appropriate tritiated ligand ([^3H]U69,593, [^3H]DAMGO or [^3H]DPDPE for kappa, mu or delta binding, respectively) and the appropriate concentration of compound for 60 minutes at 30° C. Membranes with bound tritiated ligand were collected on Whatman GF/B filter paper (Brandel, Gaithersburg, Md., USA) utilizing a Brandel harvester. Bound tritiated ligand was quantified using a TriCarb-2900TR scintillation counter (Packard, Downers Grove, Ill., USA) following addition of 4 ml ReadySafe scintillation fluid (Beckman Coulter, Indianapolis, Ind., USA). Compiled data for each compound was normalized to the maximal binding in the absence of compound, with non-specific binding subtracted. Curve fitting was done in Microcal Origin 17.0 software using logistic sigmoidal fit, to determine IC50. GTPgammaS Membranes from U2OS cells stably expressing human kappa opioid receptors were used. Cells were scraped from tissue culture plates, homogenized with a tissue tearor homogenizer in membrane buffer (10 mM Tris, 100 mM NaCl, and 1 mM EDTA; pH 7.4), and centrifuged at 20,000 g for 30 minutes at 4° C. and frozen at −80° C. until use. Prior to use, the pellets were resuspended in assay buffer (50 mm Tris, 100 mm NaCl, 5 mM MgCl2, and 1 mM EDTA; pH 7.4) and homogenized with a dounce homogenizer and 50 μg incubated with 0.1 nM [35 S]GTPγS, 10 nM GDP, and the appropriate concentration of agonist for 20 minutes at 30° C. To test inhibition, all samples were incubated with 100 nM U69,593 as well as the appropriate concentration of compound. Membranes with bound [35 S]GTPγS were collected on Whatman GF/B filter paper (Brandel, Gaithersburg, Md., USA) utilizing a Brandel harvester. Bound [35 S]GTPγS was quantified using a TriCarb-2900TR scintillation counter (Packard, Downers Grove, Ill., USA) following addition of 4 mL ReadySafe scintillation fluid (Beckman Coulter, Indianapolis, Ind., USA). […] NA indicates not applicable. For each compound, curve fitting was done in Microcal Origin 17.0 software using logistic sigmoidal fit, to determine EC50 and maximal percent stimulation, which in turn was normalized to the maximal percent stimulation of the test full agonist compound U69,593 to determine % efficacy. β2-Arrestin Experiments were conducted using the PathHunter Detection Kit obtained from DiscoverX. Cells stably expressing kappa, mu or delta opioid receptor constructs (PathHunter U2OS hOPRK1, CHO-K1 rOPRM1 and CHO-K1 OPRD1 β-arrestin cell line, DiscoverX, Fremont, Calif., USA) were plated in 96- or 384-well plates. Cells were stimulated with the compounds for 90 minutes at 37° C. To test inhibition, all samples were incubated with 100 nM U69,593 as well as the appropriate concentration of compound. Cells were then incubated for 60 minutes in the presence of galoctosidase substrate, yielding chemiluminescent product. Chemiluminescence was measured using a Synergy Neo microplate reader (BioTek, Winooski, Vt., USA). Antagonism assays were done in the same manner, in the presence of 300 nM U69,593, 1 μM DAMGO or 1 μM DPDPE for KOP-R, MOP-R or DOP-R assays, respectively. […] NA indicates not applicable. […]

[2] = target: T2, human kappa opioid receptors (Homo sapiens, UniProt P41145); assay: [35S]GTPγS stimulation, membranes from U2OS cells; assay type: biochemical; settings: for Emax: read-out: GTPγS stimulation % efficacy
T2 construct: expressed in transfected cells; host or cells: U2OS
Method: Membranes from cells stably expressing kappa, mu or delta opioid receptor constructs (PathHunter U2OS hOPRK1, CHO-K1 rOPRM1 and CHO-K1 OPRD1 β-arrestin cell line, DiscoverX, Fremont, Calif., USA) were used. Cells were scraped from tissue culture plates, homogenized with a tissue tearor homogenizer in membrane buffer (10 mM Tris, 100 mM NaCl, and 1 mM EDTA; pH 7.4), and centrifuged at 20,000 g for 30 minutes at 4° C. and frozen at −80° C. until use. Prior to use, the pellets were resuspended in binding buffer (50 mm Tris, 100 mm NaCl, pH 7.4), homogenized with a dounce homogenizer and […] incubated with 1.0 nM of the appropriate tritiated ligand ([^3H]U69,593, [^3H]DAMGO or [^3H]DPDPE for kappa, mu or delta binding, respectively) and the appropriate concentration of compound for 60 minutes at 30° C. Membranes with bound tritiated ligand were collected on Whatman GF/B filter paper (Brandel, Gaithersburg, Md., USA) utilizing a Brandel harvester. Bound tritiated ligand was quantified using a TriCarb-2900TR scintillation counter (Packard, Downers Grove, Ill., USA) following addition of 4 ml ReadySafe scintillation fluid (Beckman Coulter, Indianapolis, Ind., USA). Compiled data for each compound was normalized to the maximal binding in the absence of compound, with non-specific binding subtracted. Curve fitting was done in Microcal Origin 17.0 software using logistic sigmoidal fit, to determine IC50. GTPgammaS Membranes from U2OS cells stably expressing human kappa opioid receptors were used. Cells were scraped from tissue culture plates, homogenized with a tissue tearor homogenizer in membrane buffer (10 mM Tris, 100 mM NaCl, and 1 mM EDTA; pH 7.4), and centrifuged at 20,000 g for 30 minutes at 4° C. and frozen at −80° C. until use. Prior to use, the pellets were resuspended in assay buffer (50 mm Tris, 100 mm NaCl, 5 mM MgCl2, and 1 mM EDTA; pH 7.4) and homogenized with a dounce homogenizer and 50 μg incubated with 0.1 nM [35 S]GTPγS, 10 nM GDP, and the appropriate concentration of agonist for 20 minutes at 30° C. To test inhibition, all samples were incubated with 100 nM U69,593 as well as the appropriate concentration of compound. Membranes with bound [35 S]GTPγS were collected on Whatman GF/B filter paper (Brandel, Gaithersburg, Md., USA) utilizing a Brandel harvester. Bound [35 S]GTPγS was quantified using a TriCarb-2900TR scintillation counter (Packard, Downers Grove, Ill., USA) following addition of 4 mL ReadySafe scintillation fluid (Beckman Coulter, Indianapolis, Ind., USA). […] For each compound, curve fitting was done in Microcal Origin 17.0 software using logistic sigmoidal fit, to determine EC50 and maximal percent stimulation, which in turn was normalized to the maximal percent stimulation of the test full agonist compound U69,593 to determine % efficacy. β2-Arrestin Experiments were conducted using the PathHunter Detection Kit obtained from DiscoverX. Cells stably expressing kappa, mu or delta opioid receptor constructs (PathHunter U2OS hOPRK1, CHO-K1 rOPRM1 and CHO-K1 OPRD1 β-arrestin cell line, DiscoverX, Fremont, Calif., USA) were plated in 96- or 384-well plates. Cells were stimulated with the compounds for 90 minutes at 37° C. To test inhibition, all samples were incubated with 100 nM U69,593 as well as the appropriate concentration of compound. Cells were then incubated for 60 minutes in the presence of galoctosidase substrate, yielding chemiluminescent product. Chemiluminescence was measured using a Synergy Neo microplate reader (BioTek, Winooski, Vt., USA). Antagonism assays were done in the same manner, in the presence of 300 nM U69,593, 1 μM DAMGO or 1 μM DPDPE for KOP-R, MOP-R or DOP-R assays, respectively.

[3] = target: T3, kappa opioid receptor (PathHunter U2OS hOPRK1 β-arrestin cell line) (Homo sapiens, UniProt P41145); assay: β-arrestin coupling (PathHunter Detection Kit); assay type: cell-based; settings: for Emax at 10 µM: U2OS; for β-arrestin coupling % efficacy: maximal, normalized to U69,593, No stim = no stimulation at highest dose tested, 10,000 nM
T3 construct: host or cells: U2OS (PathHunter U2OS hOPRK1 β-arrestin cell line)
Method: as §1

[4] = 1.0 nM [3H]U69,593, 60 minutes at 30° C., read-out: Binding IC50
[5] = read-out: β-arrestin coupling % efficacy at 10 μM

T1 sequence (P41145 whole entry): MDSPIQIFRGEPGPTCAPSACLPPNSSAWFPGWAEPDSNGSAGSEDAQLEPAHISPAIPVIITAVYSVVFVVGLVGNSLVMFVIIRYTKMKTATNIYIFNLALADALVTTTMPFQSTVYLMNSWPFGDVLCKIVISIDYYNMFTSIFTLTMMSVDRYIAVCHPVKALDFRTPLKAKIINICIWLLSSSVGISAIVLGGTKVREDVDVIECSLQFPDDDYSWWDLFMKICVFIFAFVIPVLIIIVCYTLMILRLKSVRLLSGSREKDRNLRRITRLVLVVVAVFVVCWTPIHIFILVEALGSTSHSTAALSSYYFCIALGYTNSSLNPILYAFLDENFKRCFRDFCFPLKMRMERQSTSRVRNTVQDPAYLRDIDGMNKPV
T3 sequence (P41145 whole entry): as above
T2 sequence (P41145 whole entry): as above

| SMILES | IC50 [1, 4] [nM] | EC50 [2] [nM] | Emax [2] [%] | Emax at 10 µM [3, 5] [%] | IC50 [1] [nM] | EC50 [3] [nM] | Emax at 10 µM ([3]; read-out: β-arrestin coupling % efficacy) [%] | β-arrestin coupling % efficacy [3] |
| --- | --- | --- | --- | --- | --- | --- | --- | --- |
| O=C(Cc1cccc(Cl)c1)N1CCN[C@H]2COC[C@@H](N3CCCC3)[C@@H]21 (single isomer, unassigned) [Example 5A24B] | 1130 | 1370 | 102 | 0 | – | – | – | – |
| CS(=O)(=O)N1CCN(C(=O)Cc2ccc(Cl)c(Cl)c2)[C@H]2[C@H]1COC[C@@H]2N1CCCC1 (racemic) [Example 5A44] | – | 6.7 | 88 | – | 19 | 6200 | 55 | – |
| CC(C)CN1CCN(C(=O)Cc2ccc(Cl)c(Cl)c2)[C@H]2[C@H]1COC[C@@H]2N1CCCC1 [Example 5A71] | – | 14 | 93 | 40 | 27 | – | – | – |
| O=C(Cc1ccc(Cl)c(Cl)c1)N1CCN(Cc2ccccc2)[C@@H]2COC[C@H](N3CCCC3)[C@H]21 (racemic) [Example 5A53, 1-[4-benzyl-8-pyrrolidin-1-yl-3,4a,5,7,8,8a-hexahydro-2H-pyrano(3,4-b)pyrazin-1-yl]-2-(3,4-dichlorophenyl)ethanone] | – | 12 | 82 | 80 | 40 | – | – | – |
| O=C(Cc1cccc(Cl)c1)N1CCN[C@@H]2COC[C@H](N3CCCC3)[C@H]21 (single isomer, unassigned) [Example 5A24A] | 463 | 384 | 115 | 0 | – | – | – | – |
| CCCN1CCN(C(=O)Cc2ccc(Cl)c(Cl)c2)[C@H]2[C@H]1COC[C@@H]2N1CCCC1 (racemic) [Example 5A72] | – | 12 | 111 | 50 | 26 | – | – | – |
| CCN(CC)[C@H]1COC[C@H]2NCCN(C(=O)Cc3ccc(Cl)c(Cl)c3)[C@@H]21 (racemic) [Example 5A64] | 1920 | 2120 | 68 | – | – | – | – | No stim |
| O=C(Cc1cccc(Cl)c1Cl)N1CCN[C@@H]2COC[C@H](N3CCCC3)[C@H]21 (racemic) [Example 5A48] | 1040 | 21800 | 181 | – | – | – | – | No stim |
| O=C(Cc1ccc(Cl)c(Cl)c1)N1CCN(S(=O)(=O)C2CC2)[C@@H]2COC[C@H](N3CCCC3)[C@H]21 (single isomer, unassigned) [Example 5A52A] | – | 1.7 | 119 | 60 | 3.6 | – | – | – |
| O=C(Cc1ccc(Cl)c(Cl)c1)N1CCN(CC2CC2)[C@@H]2COC[C@H](N3CCCC3)[C@H]21 (racemic) [Example 5A70] | – | 19 | 90 | 50 | 71 | – | – | – |
| O=C(Cc1ccc(Cl)c(Cl)c1)N1CCN(Cc2ccccc2)[C@H]2COC[C@@H](N3CCCC3)[C@@H]21 (single isomer, unassigned) [Example 5A53B] | – | 4.8 | 58 | 80 | 44 | – | – | – |
| O=C(Cc1ccc(Cl)c(Cl)c1)N1CCN(CC2CCCC2)[C@@H]2COC[C@H](N3CCCC3)[C@H]21 (racemic) [Example 5A54] | – | 31 | 73 | 20 | 73 | – | – | – |
| CN(C)[C@H]1COC[C@H]2NCCN(C(=O)Cc3ccc(Cl)c(Cl)c3)[C@@H]21 (racemic) [Example 5A51] | 120 | 108 | 71 | – | – | – | – | No stim |
| Cc1ccc(CC(=O)N2CCN[C@@H]3COC[C@H](N4CCCC4)[C@H]32)cc1Cl (racemic) [Example 5A57] | – | 62 | 98 | 20 | 42 | – | – | – |
| CS(=O)(=O)N1CCN(C(=O)Cc2ccc(Cl)c(Cl)c2)[C@H]2[C@H]1COC[C@@H]2N1CCCC1 (single isomer, unassigned) [Example 5A44A] | – | 3.4 | 119 | 80 | 5.4 | – | – | – |
| O=C(Cc1cccc(Cl)c1)N1CCN[C@@H]2COC[C@H](N3CCCC3)[C@H]21 (racemic) [Example 5A24] | 251 | 213 | 64 | – | – | – | – | No stim |
